Laboratory results as given in publication PMC5967201, “The Odorant Binding Protein 6 Expressed in Sensilla Chaetica Displays Preferential Binding Affinity to Host Plants Volatiles in Ectropis obliqua” (Frontiers in Physiology, 2018).
Entries after “also recorded” stand apart in the source; their conditions may differ. Like-named read-outs stand apart in the source and are kept apart here.

Tests used:
EoblOBP6 [1] = target: T1, EoblOBP6 (Ectropis obliqua, UniProt A0A1L2BL92); test: Fluorescence competitive binding assay (displacement of 1-NPN from recombinant EoblOBP6)
T1 sequence (A0A1L2BL92 entry or part of it): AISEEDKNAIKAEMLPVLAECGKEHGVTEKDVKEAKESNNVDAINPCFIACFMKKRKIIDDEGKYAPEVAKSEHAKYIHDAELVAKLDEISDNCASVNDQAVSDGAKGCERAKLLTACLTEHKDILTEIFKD
Description: (§1) Fluorescence binding assays were performed on a fluorescence spectrophotometer F-380 (Tianjin, China) with a 1 cm light path quartz cuvette and 10 nm slits for excitation and emission. The excitation wavelength was set at 337 nm, and the emission spectrum was recorded between 390 and 500 nm. Both the fluorescent probe N-phenyl-1-naphthylamine (1-NPN) and the tested chemicals were dissolved in methanol in preparation for 1 mM stock solution. […] The fluorescence intensities at the maximum fluorescence emission were plotted against the free ligand concentration to determine the binding constants. The bound ligand was evaluated from the fluorescence intensity in the assumption of the protein was 100% dynamic, with a stoichiometry of 1:1 (protein: ligand) at saturation. The binding curves were linearized using Scatchard Plot.

EoblOBP6 [2] = target: T1, EoblOBP6; test: Fluorescence binding assay of probe 1-NPN with recombinant EoblOBP6 (titration, Scatchard plot)
Description: as §1, with “For the ligand binding assays, the tested compounds, including terpenoids, tea volatiles, herbivore-induced plant volatiles and non-volatile tastants, were selected according to the previously reported isolation from the E. obliqua host plant and non-host plant ([Sun X.L. et al., 2014]; [Zhang Z. et al., 2015]). Fluorescence” for “Fluorescence”, “saturation. […]” for “saturation.”, “dissociation constants of competitors” for “binding curves”, “calculated from the corresponding IC50 values following the equation: Ki = (IC50)/(1+(1-NPN)/K1-NPN), where (1-NPN) is the free concentration of 1-NPN and K1-NPN is the dissociation constant of the protein/1-NPN complex.” for “linearized using Scatchard Plot.”

antennae of E. obliqua = system: antennae of E. obliqua; parameters: method as in Zhang Z. et al., 2015; conditions: ref Zhang Z. et al., 2015; cited from earlier work
[3] = Table 2 non-volatile tastants, calculated from IC50: Ki = (IC50)/(1+(1-NPN)/K1-NPN)
[4] = Table 2 non-volatile tastants, competitor 2 to 30 μM, 1-NPN and EoblOBP6 both at 2 μM
[5] = Table 1 volatiles, calculated from IC50: Ki = (IC50)/(1+(1-NPN)/K1-NPN)
[6] = Table 1 volatiles, calculated from IC50: Ki = (IC50)/(1+(1-NPN)/K1-NPN), read-out: Ki
[7] = Table 1 volatiles, competitor titrated 2 to 30 μM into 1-NPN and EoblOBP6 both at 2 μM, 50 mM Tris-HCl pH 7.4, read-out: IC50

In the case of COc1ccc2cc3[n+](cc2c1OC)CCc1cc2c(cc1-3)OCO2 [Berberine], the IC50 (EoblOBP6 [1]) is reported as 7.94 ± 0.61 µM, the Ki (EoblOBP6 [1]) is reported as 5.55 ± 0.87 µM and the “binding ability to EoblOBP6 in words” value (EoblOBP6 [1]) is reported as “tightly bound; also recorded: bind strongly”.

In the case of CN1[C@@H]2CC[C@H]1C[C@@H](OC(=O)C(CO)c1ccccc1)C2 (some centres unmarked) [Atropine, reference compound], the Ki (EoblOBP6 [1]; [3]) is reported as “u.d” and the IC50 (EoblOBP6 [1]; [4]) is reported as “u.d”.

With C=C1CC/C=C(\C)CC[C@@H]2[C@@H]1CC2(C)C [β-Caryophyllene] the Ki (EoblOBP6 [1]; [5]) was “u.d”.

With CC/C=C\CC=O [(Z)-3-hexenal] the Ki (EoblOBP6 [1]; [5]) was “u.d”.

With CCCCCCCCC=O [Nonanal] the Ki (EoblOBP6 [1]; [5]) was “u.d”.

For OCc1ccccc1 [Benzyl alcohol], the Ki (EoblOBP6 [1]; [5]) was “u.d”.

With N[C@@H](Cc1c[nH]cn1)C(=O)O [L-Histidine] the Ki (EoblOBP6 [1]; [3]) was “u.d” and the IC50 (EoblOBP6 [1]; [4]) was “u.d”.

Compound C/C1=C\CC/C(C)=C/CC(C)(C)/C=C/C1 [α-Caryophyllene] has a Ki (EoblOBP6 [1]; [6]) of 15.6 ± 0.19 µM and an IC50 (EoblOBP6 [1]; [7]) of 22.4 ± 0.27 µM.

In the case of Cn1c(=O)c2c(ncn2C)n(C)c1=O [Caffeine, reference compound], the Ki (EoblOBP6 [1]; [3]) is reported as “u.d” and the IC50 (EoblOBP6 [1]; [4]) is reported as “u.d”.

For OCc1ccccc1O[C@@H]1O[C@H](CO)[C@@H](O)[C@H](O)[C@H]1O [D(-)-Salicin], the Ki (EoblOBP6 [1]; [3]) was “u.d” and the IC50 (EoblOBP6 [1]; [4]) was “u.d”.

For CC/C=C\CCOC(=O)CCC [(Z)-3-hexenyl butyrate], the Ki (EoblOBP6 [1]; [5]) was “u.d”.

In the case of C=CC(=C)CCC=C(C)C [β-Myrcene], the Ki (EoblOBP6 [1]; [5]) is reported as “u.d”.

For CC1=CC[C@@H](C(C)(C)O)CC1 [α-Terpineol], the Ki (EoblOBP6 [1]; [5]) was “u.d”.

For CCCCCCO [1-Hexanol], the “binding ability to EoblOBP6 in words” value (EoblOBP6 [1]) was “could hardly bind” and the Ki (EoblOBP6 [1]; [5]) was “u.d”.

For OC[C@H]1O[C@@](CO)(O[C@H]2O[C@H](CO)[C@@H](O)[C@H](O)[C@H]2O)[C@@H](O)[C@@H]1O [D-Sucrose], the Ki (EoblOBP6 [1]; [3]) was “u.d” and the IC50 (EoblOBP6 [1]; [4]) was “u.d”.

With CC1=CCC2CC1C2(C)C (stereo not drawn) [α-Pinene] the Ki (EoblOBP6 [1]; [5]) was “u.d”.

In the case of CC1=C[C@H](O)[C@H]2C[C@@H]1C2(C)C (relative stereo) [cis-Verbenol], the Ki (EoblOBP6 [1]; [5]) is reported as “u.d”.

For CCCCCCOC(C)=O [Hexyl acetate], the “binding ability to EoblOBP6 in words” value (EoblOBP6 [1]) was “could hardly bind” and the Ki (EoblOBP6 [1]; [5]) was “u.d”.

In the case of CCCCCCCCCC=O [Decanal], the “binding ability to EoblOBP6 in words” value (EoblOBP6 [1]) is reported as “could hardly bind” and the Ki (EoblOBP6 [1]; [5]) is reported as “u.d”.

With Cn1c(=O)c2[nH]cnc2n(C)c1=O [Theophylline, reference compound] the Ki (EoblOBP6 [1]; [3]) was “u.d” and the IC50 (EoblOBP6 [1]; [4]) was “u.d”.

For OC[C@H]1O[C@H](O[C@H]2O[C@H](CO)[C@@H](O)[C@H](O)[C@H]2O)[C@H](O)[C@@H](O)[C@@H]1O [Trehalose], the Ki (EoblOBP6 [1]; [3]) was “u.d” and the IC50 (EoblOBP6 [1]; [4]) was “u.d”.

For C=C(C)[C@H]1CC=C(C)CC1 [Limonene], the Ki (EoblOBP6 [1]; [5]) was “u.d”.

With C=CC(C)(O)CCC=C(C)C (centres unmarked) [Linalool] the Ki (EoblOBP6 [1]; [5]) was “u.d”.

In the case of C=C/C(C)=C/CC=C(C)C [β-Ocimene], the Ki (EoblOBP6 [1]; [5]) is reported as “u.d”.

For N#CCc1ccccc1 [Benzyl nitrile], the Ki (EoblOBP6 [1]; [5]) was “u.d”.

In the case of O.Oc1cc(O)c2c(c1)O[C@H](c1ccc(O)c(O)c1)[C@@H](O)C2 [Catechin], the Ki (EoblOBP6 [1]; [3]) is reported as “u.d” and the IC50 (EoblOBP6 [1]; [4]) is reported as “u.d”.

With C[C@H](N)C(=O)O [L-Alanine] the Ki (EoblOBP6 [1]; [3]) was “u.d” and the IC50 (EoblOBP6 [1]; [4]) was “u.d”.

For C=C1CCC2CC1C2(C)C (stereo not drawn) [(-)-β-Pinene], the Ki (EoblOBP6 [1]; [5]) was “u.d”.

With C=CC(C)(O)CCC=C(C)CCC=C(C)C (mixture of isomers) [Nerolidol] the IC50 (EoblOBP6 [1]) was 15.6 ± 0.76 µM, the Ki (EoblOBP6 [1]) was 10.9 ± 0.53 µM and the “binding ability to EoblOBP6 in words” value (EoblOBP6 [1]) was “high binding ability”.

For CC/C=C\CCO [(Z)-3-hexenol], the “binding ability to EoblOBP6 in words” value (EoblOBP6 [1]) was “could hardly bind” and the Ki (EoblOBP6 [1]; [5]) was “u.d”.

With CC12CCC(CC1=O)C2(C)C (centres unmarked) [Camphor] the Ki (EoblOBP6 [1]; [5]) was “u.d”.

In the case of CC/C=C\CCOC(=O)CCCCC [(Z)-3-hexenyl hexanoate], the Ki (EoblOBP6 [1]; [5]) is reported as “u.d”.

In the case of c1ccc2[nH]ccc2c1 [Indole], the Ki (EoblOBP6 [1]; [5]) is reported as “u.d”.

With CCC/C=C/C=O [(E)-2-hexenal] the Ki (EoblOBP6 [1]; [5]) was “u.d”.

c1ccc(Nc2cccc3ccccc23)cc1 [1-NPN, N-phenyl-1-naphthylamine] showed a Kd (EoblOBP6 [2]) of 2.7 ± 0.24 µM.

For C=C1[C@H]2CC[C@H](C2)C1(C)C [(+)-Camphene], the Ki (EoblOBP6 [1]; [5]) was “u.d”.

For O=Cc1ccccc1 [Benzaldehyde], the IC50 (EoblOBP6 [1]) was 21.6 ± 0.84 µM and the Ki (EoblOBP6 [1]) was 15.1 ± 0.58 µM.

For CC1=CC(=O)[C@@H]2C[C@H]1C2(C)C [Verbenone], the Ki (EoblOBP6 [1]; [5]) was “u.d”.

For CC/C=C\CCOC(C)=O [(Z)-3-hexenyl acetate], the Ki (EoblOBP6 [1]; [5]) was “u.d”.

For COC(=O)c1ccccc1O [Methyl salicylate], the Ki (EoblOBP6 [1]; [5]) was “u.d”.

In the case of OC[C@H]1OC(O)[C@H](O)[C@@H](O)[C@@H]1O (stereo partly drawn) [D-Glucose], the Ki (EoblOBP6 [1]; [3]) is reported as “u.d” and the IC50 (EoblOBP6 [1]; [4]) is reported as “u.d”.

With C=C/C(C)=C/C/C=C(\C)CCC=C(C)C [α-Farnesene] the “binding ability to EoblOBP6 in words” value (EoblOBP6 [1]) was “high binding ability”, the Ki (EoblOBP6 [1]; [6]) was 11 ± 0.29 µM and the IC50 (EoblOBP6 [1]; [7]) was 15.8 ± 0.42 µM.

For CC1=CC=C(C(C)C)CC1 [α-Terpinene], the IC50 (EoblOBP6 [1]) is given as 26.2 ± 0.53 µM, the Ki (EoblOBP6 [1]) is given as 18.3 ± 0.37 µM and the “electrophysiological responses from the antennae” value (antennae of E. obliqua) is given as “strong electrophysiological responses”.

In the case of CC1=CCC(C(C)C)=CC1 [γ-Terpinene], the Ki (EoblOBP6 [1]; [5]) is reported as “u.d”.

With O=C[C@H](O)[C@@H](O)[C@H](O)CO [D-Xylose] the Ki (EoblOBP6 [1]; [3]) was “u.d” and the IC50 (EoblOBP6 [1]; [4]) was “u.d”.

For CC(=O)/C=C/C1=C(C)CCCC1(C)C [β-Ionone], the Ki (EoblOBP6 [1]; [5]) was “u.d”.
